Experiments:
[1] = target: T1, Human COX-1 (Homo sapiens, UniProt P23219); test: Inhibitory activity against human COX-1 using peripheral blood (calcium ionophore A23187, thromboxane B2 EIA); assay type: cell-based; conditions: 37° C. 4.5 hours then A23187 500 μM 30 minutes
T1 construct: 500 μl of peripheral blood collected from a healthy volunteer; endogenous in cells; host or cells: human whole peripheral blood from a healthy volunteer, stimulated with calcium ionophore A23187
Procedure: (§1) Method for Measuring Inhibitory Activity Against Human COX-1 and COX-2 Using Peripheral Blood
(§2) 1 μl of a solution of the compound of the present invention in DMSO was added to 500 μl of peripheral blood collected from a healthy volunteer.
In the case of measuring COX-1 activity, after incubating at 37° C. for 4.5 hours, calcium ionophore A23187 was added to a final concentration of 500 μM followed by additional incubation at 37° C. for 30 minutes and transferring to ice to stop the reaction.

[2] = target: T2, Human COX-2 (Homo sapiens, UniProt P35354); test: Inhibitory activity against human COX-2 using peripheral blood (LPS-stimulated, thromboxane B2 EIA); assay type: cell-based; conditions: LPS 10 μg/ml, 37° C. 5 hours
T2 construct: 500 μl of peripheral blood collected from a healthy volunteer; endogenous in cells; host or cells: human whole peripheral blood from a healthy volunteer, stimulated with LPS
T2 sequence (P35354 18-604): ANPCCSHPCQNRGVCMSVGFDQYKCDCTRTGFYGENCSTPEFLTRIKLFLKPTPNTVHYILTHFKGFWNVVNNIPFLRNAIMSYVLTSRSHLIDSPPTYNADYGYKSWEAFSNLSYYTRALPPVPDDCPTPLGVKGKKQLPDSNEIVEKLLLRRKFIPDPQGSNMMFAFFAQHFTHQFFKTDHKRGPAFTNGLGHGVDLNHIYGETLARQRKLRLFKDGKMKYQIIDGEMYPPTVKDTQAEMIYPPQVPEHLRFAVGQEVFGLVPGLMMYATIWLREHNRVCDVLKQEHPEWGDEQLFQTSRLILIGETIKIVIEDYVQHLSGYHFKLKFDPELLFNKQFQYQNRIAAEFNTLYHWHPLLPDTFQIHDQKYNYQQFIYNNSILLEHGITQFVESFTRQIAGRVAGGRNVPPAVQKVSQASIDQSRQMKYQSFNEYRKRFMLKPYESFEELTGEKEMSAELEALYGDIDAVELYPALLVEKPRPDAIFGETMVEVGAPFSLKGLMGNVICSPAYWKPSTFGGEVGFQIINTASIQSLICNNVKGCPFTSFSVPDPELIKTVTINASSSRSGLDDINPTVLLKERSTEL
Procedure: as §1, §2
In the case of measuring COX-2 activity, LPS (E. coli 026:B6) was added onto blood to which the compound has been added to a concentration of 10 μg/ml followed by incubating at 37° C. for 5 hours and transferring onto ice to stop the reaction.

T1 sequence (P23219 24-599): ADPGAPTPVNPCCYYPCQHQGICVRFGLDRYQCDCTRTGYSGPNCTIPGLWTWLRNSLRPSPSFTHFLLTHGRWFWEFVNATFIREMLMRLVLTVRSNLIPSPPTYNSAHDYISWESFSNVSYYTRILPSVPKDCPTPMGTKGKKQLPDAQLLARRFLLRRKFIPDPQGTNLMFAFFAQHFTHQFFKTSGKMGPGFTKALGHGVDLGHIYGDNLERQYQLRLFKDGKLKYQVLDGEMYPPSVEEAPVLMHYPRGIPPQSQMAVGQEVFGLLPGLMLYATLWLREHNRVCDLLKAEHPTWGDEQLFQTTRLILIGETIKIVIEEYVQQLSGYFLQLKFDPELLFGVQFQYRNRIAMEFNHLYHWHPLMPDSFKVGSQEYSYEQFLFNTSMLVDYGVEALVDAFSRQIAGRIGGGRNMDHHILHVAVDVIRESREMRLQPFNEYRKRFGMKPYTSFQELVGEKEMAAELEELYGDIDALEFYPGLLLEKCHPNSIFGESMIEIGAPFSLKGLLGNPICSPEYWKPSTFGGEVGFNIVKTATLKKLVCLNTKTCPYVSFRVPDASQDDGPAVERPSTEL

| IC50 [1] [nM] | IC50 [2] [nM] | melting point [°C] | Compound |
| --- | --- | --- | --- |
| > 20000 | 150 | – | CS(=O)(=O)c1cnc2c(c1)cc(-c1ccco1)n2Cc1ccc(F)cc1 [Example 1, 2-(2-Furyl)-1-(4-fluorobenzyl)-5-methanesulfonyl-1H-pyrrolo[2,3-b]pyridine] |
| > 20000 | 500 | – | CS(=O)(=O)c1ccc2c(c1)cc(-c1nccs1)n2Cc1ccc(F)cc1 [Example 2, 1-(4-Fluorobenzyl)-5-methanesulfonyl-2-(thiazol-2-yl)indole] |
| > 20000 | 300 | 200 to 201 | CS(=O)(=O)c1cnc2c(c1)cc(-c1ncco1)n2Cc1ccc(F)cc1 [Example 3, 1-(4-Fluorobenzyl)-2-(oxazol-2-yl)-5-methanesulfonyl-1H-pyrrolo[2,3-b]pyridine] |
| > 20000 | 4000 | – | CS(=O)(=O)c1ccc2c(c1)cc(-c1nnco1)n2Cc1ccc(F)cc1 [Example 4, 1-(4-Fluorobenzyl)-5-methanesulfonyl-2-([1,3,4]oxadiazol-2-yl)indole] |
| > 20000 | 400 | – | CS(=O)(=O)c1cnc2c(c1)cc(-c1ccccn1)n2Cc1ccc(F)cc1 [Example 5, 5-Methanesulfonyl-2-(2-pyridyl)-1-(4-fluorobenzyl)-1H-pyrrolo[2,3-b]pyridine] |
| > 20000 | 1500 | – | CS(=O)(=O)c1cnc2c(c1)cc(-c1ncccn1)n2CC1CCCCC1 [Example 7, 1-Cyclohexylmethyl-5-methanesulfonyl-2-(2-pyrimidinyl)-1H-pyrrolo[2,3-b]pyridine] |
| > 20000 | 800 | – | CS(=O)(=O)c1ccc2c(c1)cc(-c1ccco1)n2Cc1ccc(F)cc1 [Example 8, 2-(2-Furanyl)-1-(4-fluorobenzyl)-5-methanesulfonyl-1H-indole] |
| > 20000 | 1500 | – | CS(=O)(=O)c1cnc2c(c1)cc(-c1ccco1)n2Cc1ccccn1 [Example 10, 2-(2-Furanyl)-5-methanesulfonyl-1-(2-pyridylmethyl)-1H-pyrrolo[2,3-b]pyridine] |
| > 20000 | 200 | – | Cc1ccc(-c2cc3cc(S(C)(=O)=O)cnc3n2Cc2ccc(F)cc2)o1 [Example 11, 1-(4-Fluorobenzyl)-5-methanesulfonyl-2-(5-methylfuran-2-yl)-1H-pyrrolo[2,3-b]pyridine] |
| > 20000 | 150 | – | CS(=O)(=O)c1cnc2c(c1)cc(-c1ccco1)n2CC1CCCCC1 [Example 12, 2-(2-Furanyl)-1-cyclohexylmethyl-5-methanesulfonyl-1H-pyrrolo[2,3-b]pyridine] |
| > 10000 | 4000 | – | CS(=O)(=O)c1ccc2c(c1)cc(C1CCCO1)n2Cc1ccc(F)cc1 (stereo not shown) [Example 13, 2-(2-Tetrahydrofuranyl)-1-(4-fluorobenzyl)-5-methanesulfonyl-indole] |
| > 20000 | 100 | – | CS(=O)(=O)c1ccc2c(c1)cc(C1=CCOCC1)n2Cc1ccc(F)cc1 [Example 14, 2-(5,6-Dihydro-2H-4-pyranyl)-1-(4-fluorobenzyl)-5-methanesulfonyl-indole] |
| > 20000 | 800 | – | CNC(=O)c1ccc(-c2cc3cc(S(C)(=O)=O)ccc3n2Cc2ccc(F)cc2)nc1 [Example 17, 1-(4-Fluorobenzyl)-5-methanesulfonyl-2-(5-methylaminocarbonylpyridin-2-yl)indole] |
| > 20000 | 200 | – | CS(=O)(=O)c1cnc2c(c1)cc(-c1nnco1)n2Cc1ccc(F)cc1 [Example 33, 1-(4-Fluorobenzyl)-5-methanesulfonyl-2-([1,3,4]oxadiazol-2-yl)-1H-pyrrolo[2,3-b]pyridine] |

| Compound | IC50 [1] [nM] | IC50 [2] [nM] | melting point [°C] |
| --- | --- | --- | --- |
| CS(=O)(=O)c1ccc2c(c1)cc(-c1ccco1)n2CC1CCCCC1 [Example 9, 1-Cyclohexylmethyl-2-(2-furanyl)-5-methanesulfonylindole] | > 20000 | 2000 | – |
